# Where two headings read alike, the source gives them in different places.
# Assays:
# PRMT5 [1] = molecular target: T1, PRMT5 (Homo sapiens, UniProt O14744); assay: PRMT5 enzymatic activity inhibition assay (radioactive methylation, 3H-SAM to H4R3 peptide); assay type: biochemical
# T1 construct: The final concentrations of PRMT5 enzyme: 2.5 nm/L
# Description: The PRMT5 enzymatic activity assay was conducted by Chempartner Life science. The final concentrations of PRMT5 enzyme: 2.5 nm/L; ^3H-SAM: 0.3 μM/L; histone peptide (H4R3S1ac): 0.3 μM/L. The protocol of radioactive methylation assay was as follows: (1) Prepare 1× assay buffer (modified Tris Buffer). (2) Transfer compounds to assay plate using Echo in 100% DMSO. DMSO’s final fraction is 1%. (3) Prepare enzyme and ^3H-SAM Mix solution in 1× assay buffer. (4) Prepare substrate (peptide sequence Ac-[…]-K(Biotin)) solution in 1× assay buffer. (5) Transfer 15 μL of enzyme and ^3H-SAM solution to assay plate. (6) Incubate at room temperature for 60 min. (7) Add 10 μL of substrate solution to each well to start the reaction, and for low control transfer 10 μL of 1× assay buffer. (8) Incubate at room temperature for 120 min. (9) Add cold SAM in 1× assay buffer to make the stop mix. (10) Stop reaction with addition of 5 µL per well of stop solution. (11) Transfer 25 µL of volume per well to Flash plate from assay plate. (12) Incubate for 1 h minimum at room temperature.
# (13) Read plate on Micro beta. (14) Data process—get the data in Excel to obtain inhibition values using Equation (1).Inhibitory rate% = (Max-Signal)/ (Max-Min) × 100(1)
# Fit the data in XL-Fit to obtain IC50 values using Equation (2): Y = Bottom + (Top-Bottom)/(1 + (IC50/X) […]) Y is% inhibition and X is compound concentration(2)
# MV-4-11 cells = assay: Anti-proliferation CellTiter-Glo assay, MV-4-11; assay type: cell-based; conditions: Homo sapiens, MV4-11, 12th day
# Text: (§1) MV-4-11 and MDA-MB-468 cell lines were used to evaluate the anti-proliferative activities of the selected target compounds (CellTiter-Glo assay), and AML-12 hepatocytes were selected to evaluate the toxicity of the compounds.
# (§2) MV-4-11 and MDA-MB-468 cell line were derived from Cell Resources Center of Shanghai Academy of life sciences (Shanghai, China). AML-12 cell line was brough from Nanjing Lixing Biotechnology Co. Ltd. (Nanjing, China). MDA-MB-468 cell line was maintained in Dulbecco’s Modified Eagle Medium (DMEM, KeyGEN Bio) that contained 10% FBS (Biochanel, China), MV-4-11 cell line was maintained in Iscove’s Modified Dulbecco Medium containing; 10% FBS (Biochannel, China), AML-12 cell line was maintained in DMEM/F-12 (1:1) (KeyGEN, China; 1% ITS Liquid Media Supplement (Sigma, America), dexamethasone 40 ng/mL (Sigma, USA) and 10% FBS (Biochannel, China). All cells were grown in a humidified incubator containing 5% carbon dioxide at 37 ℃. All compounds were dispersed in dimethyl sulfoxide (Sigma), the concentration of the reserve solution was 10 mmol/L and the solution was stored in a refrigerator at −20 ℃. SDMA (# 13222S), β- Tubulin (#2146S) and horseradish peroxidase (HRP)-linked secondary antibodies anti-rabbit or anti-mouse IgG were purchased from Cell Signaling Technology (CST), and the anti-PRMT5 (ab109451) antibody was purchased from ABCAM.
# (§3) The antiproliferative activities of compounds in vitro were measured by CellTiter-Glo (CTG) assay (Promega, America). In linear/log-phase growth, cultured MV-4-11 cells were split to with seeding density of 2 × 10^5 cells/mL in 1–20 mL of media, depending on the yield required at the end of the growth period. At the conclusion of each treatment period, cells were harvested by centrifugation (4 min, 1000 rpm), and cell pellets were rinsed twice with PBS before being research further processing. Afterwards, cells were plated in 96-well plates with a density of 500 cells/well in […] media. After six hours incubation, compounds treatment was performed. Half of the culture medium was moved and re-plated with fresh media with fresh compound after 6 days. On the 12th day, Cell Titer-Glo Luminescent Cell Viability assays (Promega, USA) were used to determine the viable cell number, and luminescence was recorded using the Envision Multilabel Plate Readers (PerkinElmer). The concentration dependence curves were determined at each time point using GraphPad Prism 8.0 software.
# MDA-MB-468 cells = assay: Anti-proliferation CellTiter-Glo assay, MDA-MB-468; assay type: cell-based; conditions: Homo sapiens
# Text: as §1, §2, §3
# PRMT5 [2] = molecular target: T1, PRMT5; assay: Cellular thermal shift assay (CETSA) in MV-4-11 cells; assay type: cell-based
# Description: The cellular thermal shift assay and the isothermal dose response were run as previously described. Briefly, MV-4-11 cells were collected and centrifugated (4 min, 1000 rpm) and washed twice with PBS. Then the cells were divided three equal parts with seeding density of 1 × 10^6 cells/mL into 60 mm cell culture dish in three mL media. The cell suspension was incubated with DMSO and compounds for 18 h at 37 °C, 5% CO2, and 85% RH.
# After incubation, cells were collected and washed twice with PBS. Then they divided the ten parts into transferred thin-walled PCR tubes (0.2 mL, Axygen, Union City, CA, USA) in 50μL PBS. Cells were subjected to 3 min of heat in 96-well thermal cycler (Eppendorf Mastercycler nexus GSX1, Düsseldorf, German) at temperatures of 37, 46, 49, 52, 55, 58, 61, 64, 67 and 70 °C. After heating, cells were left to cool for 3 min and then snap frozen in −80 °C ultra-low temperature freezer overnight. The next day, cells were subjected to 3 rapid freeze thaws with 15 s of vortexing after each thaw. […]
# (B) The relative strength of PRMT5 signal on the Western blots was measured by densitometry. […] All data were analyzed using a Boltzmann sigmoidal fit. […]
# [3] = Pharmacokinetic study in ICR mice; assay type: in vivo, mouse; conditions: for MRT last: read-out: MRT0-t; for MRT inf: read-out: MRT0-∞
# Description: The pharmacokinetic properties were evaluated by PRECEDO. China. SPF ICR mice (18–20 g, 6–8 weeks, n = 3 per group) were used to carried out pharmacokinetics determinations. […] Colleting samples at different times after treatment. Plasma was obtained from the blood samples by centrifugation (6000 rpm for 3 min at 2–8 °C) and stored at −20 °C. The LC-MS/MS (Shimadzu, API 4000) method was used to determine the concentration of each animal at each time point.
# [4] = ICR, mouse, plasma, iv, 2 mg/kg, male mice, Table S1, mean ± SD
# [5] = ICR, mouse, plasma, oral gavage, 10 mg/kg, male mice, Table S2, mean
# [6] = male, ICR, mouse, plasma, iv, 2 mg/kg, ICR mouse, Table 4
# [7] = male, ICR, mouse, plasma, iv, 2 mg/kg, male mice, Table S1, mean ± SD
# [8] = male, ICR, mouse, plasma, po, 10 mg/kg, ICR mouse, Table 4
# [9] = male, ICR, mouse, plasma, po, 10 mg/kg, oral gavage, male mice, Table S2, mean
# T1 sequence (O14744 whole entry): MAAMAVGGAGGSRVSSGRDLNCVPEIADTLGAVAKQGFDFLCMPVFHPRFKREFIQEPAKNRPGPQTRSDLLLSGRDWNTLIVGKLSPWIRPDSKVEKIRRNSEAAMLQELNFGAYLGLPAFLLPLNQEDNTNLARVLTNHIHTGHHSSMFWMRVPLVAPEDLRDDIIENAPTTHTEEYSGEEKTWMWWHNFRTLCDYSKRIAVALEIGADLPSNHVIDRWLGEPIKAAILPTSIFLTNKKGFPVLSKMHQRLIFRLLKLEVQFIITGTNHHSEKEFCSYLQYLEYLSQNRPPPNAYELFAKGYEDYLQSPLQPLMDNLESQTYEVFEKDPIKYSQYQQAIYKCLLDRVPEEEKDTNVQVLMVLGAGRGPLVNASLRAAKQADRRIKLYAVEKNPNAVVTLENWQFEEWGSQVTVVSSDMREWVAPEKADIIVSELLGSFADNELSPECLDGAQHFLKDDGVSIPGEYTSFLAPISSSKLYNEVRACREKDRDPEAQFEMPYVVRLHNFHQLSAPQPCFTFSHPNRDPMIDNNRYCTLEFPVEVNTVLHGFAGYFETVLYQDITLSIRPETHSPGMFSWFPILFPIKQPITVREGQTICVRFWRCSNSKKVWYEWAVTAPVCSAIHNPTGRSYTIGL
# T1 sequence (Q9BQA1 whole entry partner): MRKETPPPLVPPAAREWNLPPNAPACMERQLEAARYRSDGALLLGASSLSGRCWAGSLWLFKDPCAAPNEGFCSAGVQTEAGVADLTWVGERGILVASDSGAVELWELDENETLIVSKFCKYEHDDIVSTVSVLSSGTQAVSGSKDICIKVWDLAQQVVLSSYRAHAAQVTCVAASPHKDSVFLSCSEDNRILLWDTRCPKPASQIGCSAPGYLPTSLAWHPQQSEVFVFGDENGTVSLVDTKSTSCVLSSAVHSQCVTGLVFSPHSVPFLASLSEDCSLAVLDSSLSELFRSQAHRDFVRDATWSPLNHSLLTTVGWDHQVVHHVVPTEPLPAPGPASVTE
smiles,measurement,setting,value
"O=C(NC[C@H](O)CN1CCc2ccccc2C1)c1ccc2c(c1)c1c(n2CC2COC2)CCCC1 [Compound 20, (S)-N-(3-(3,4-dihydroisoquinolin-2(1H)-yl)-2-hydroxypropyl)-9-(oxetan-3-ylmethyl)-2,3,4,9-tetrahydro-1H-carbazole-6-carboxamide]",IC50,PRMT5 [1],4.2 ± 1.3 nM
same,inhibition at 0.1 µM,"PRMT5 [1]; 100 nM compound, read-out: Inhibition Rate% @100 nM",83 ± 12%
same,GI50,MV-4-11 cells,4.6 ± 0.9 nM
same,GI50,MDA-MB-468 cells,9.9 ± 6.8 nM
same,PRMT5 melting point increase compared to DMSO vehicle,"PRMT5 [2]; 1 μM, 18 h",7.2 °C
same,Inhibition of PRMT5 degradation at 58 °C,"PRMT5 [2]; isothermal dose response, 58 °C",dose-dependent manner
same,AUC(0-t),[3]; [4],1030 ± 68.5 ng·h/mL
same,C0,[3]; [4],1940 ± 330 ng/mL
same,Tmax,[3]; [4],4.8 min
same,half-life,[3]; [4],29.4 ± 13.8 min
same,MRT last,[3]; [4],26.4 ± 3 min
same,MRT inf,[3]; [4],0.45 ± 0.05 h
same,AUC(0-t),[3]; [5],728 ng·h/mL
same,Tmax,[3]; [5],15 min
same,bioavailability,[3]; [5],14.5%
same,half-life,[3]; [5],364 min
same,MRT last,[3]; [5],73.2 min
same,MRT inf,[3]; [5],1.91 h
same,T1/2,"[3]; iv, 2 mg/kg, ICR mouse, Table 4",0.49 h
same,AUC(0-inf),[3]; [6],1030 ng·h/mL
same,Cmax,[3]; [6],1690 ng/mL
same,clearance,[3]; [6],32.4 mL/min/kg
same,Vd,"[3]; male, ICR, mouse, plasma, iv, 2 mg/kg, iv, 2 mg/kg, ICR mouse, Table 4, read-out: Vss",1.35 L/kg
same,Vd,"[3]; male, ICR, mouse, plasma, iv, 2 mg/kg, iv, 2 mg/kg, male mice, Table S1, mean ± SD, read-out: Vz",1.35 ± 0.556 L/kg
same,AUC(0-inf),[3]; [7],1030 ± 64.8 ng·h/mL
same,Cmax,[3]; [7],1690 ± 133 ng/mL
same,clearance,[3]; [7],32.4 mL/min/kg
same,AUC(0-inf),[3]; [8],747 ng·h/mL
same,Cmax,[3]; [8],1270 ng/mL
same,AUC(0-inf),[3]; [9],747 ng·h/mL
same,Cmax,[3]; [9],1270 ng/mL
same,bioavailability,"[3]; male, plasma, po 10 mg/kg vs iv 2 mg/kg, ICR mouse, Table 4",14.5%
same,T1/2,"[3]; po, 10 mg/kg, ICR mouse, Table 4",6.06 h
